{"source": "patent EP0447704A1", "about": "“N-Acylated azacyclic compounds, processes for their preparations and their use as medications” (Smithkline Beecham Farmaceutici S.p.A., priority 1990, dated 1991)", "key": {"mice [1]": {"test_system": "mice", "experiment": "Tail-flick test in mice", "type": "in vivo, Male Charles River mice (Swiss Strain)", "details": "for ED50: Mus musculus, 0.5 h, read-out: ANALGESIA M. TAIL-FLICK (QUANTAL) ED50; for ED50 / ANALGESIA M. TAIL-FLICK (QUANTAL) ED50: subcutaneous, 30 min pretreatment, quantal protection, limits in brackets; for ANALGESIA M. TAIL-FLICK (QUANTAL) ED50: 30 min; for M. TAIL-FLICK (QUANTAL) % protection: at 10 mg", "experimental": "B) Tail-flick test in mice\nThe methodology employed is based on that described by D'Amour and Smith, J. Pharmacol. Exp. Ther. 72, 74/1941.\nMale Charles River mice (Swiss Strain), 22-34g body weight were used. Animals were allowed food and water ad libitum and were randomized into groups of 10 prior to experimentation.\nTest compounds were dissolved in either distilled water or distilled water plus 0.1 M AMS and administered by the subcutaneous route in a final volume of 10 ml/Kg. Control animals received 10 ml/kg of the appropriate vehicle alone. Following a pretreatment period of 30 min., the mice were again placed under the heat source and the reaction tine re-determined.\nPercentage quantal protection was determined as the number of mice in which the reaction time was doubled compared to pretreatment values, expressed as a percentage of the total number of mice in the group."}, "mice [2]": {"test_system": "mice", "experiment": "p-phenylquinone-induced abdominal writhing test in mice", "type": "in vivo, Male Charles River mice (Swiss Strain)", "details": "subcutaneous, 20 min pretreatment, graded protection, limits in brackets; for ED50: Mus musculus, sc, 20 min, read-out: ANALGESIA M. WRITHING (GRADED) ED50", "experimental": "A) p-phenylquinone-induced abdominal writhing test in mice\nThe methodology employed is based on that described by Sigmund et al, Proc. Soc. Exptl. Biol. 95, 729/1957, modified by Milne and Twomey, Agents and Actions, 10, 31/1980.\nMale Charles River mice (Swiss Strain), 25-36g body weight, were used. Animals were allowed food and water ad libitum and were randomized into groups of 10 prior to experimentation. Test compounds were dissolved in either distilled water or distilled water plus 0.1 M AMS, and administered by the subcutaneous route in a final volume of 10 ml/Kg. Control animals received 10 ml/Kg of the appropriate vehicle alone. Following a pretreatment period of 20 min., mice were injected intraperitoneally with p-phenylquinone, 2 mg/Kg at 37 °C in a final volume of […]. […] During this period the number of abdominal writhing responses per animal were recorded where writhing consists of an intermittent contraction of the abdomen associated with hind leg extension.\nThe degree of antinociceptive protection afforded by the test compound was determined as the mean number of writhing responses observed in the treated group (T) expressed as a percentage of the mean number of writhing responses in the control group (C) according to the following formula: [1-(T/C]x100% = % graded protection"}}, "note": "Structures can show the parent of a compound that is named as a salt."}
{"smiles": "CC1(C)CCCN(C(=O)Cc2ccc(C(F)(F)F)cc2)C1CN1CCCC1", "note": "(racemic) [Example 10, 1-(4-trifluoromethylphenyl)acetyl-2-(pyrrolidin-1-yl)methyl-3,3-dimethyl piperidine hydrochloride]", "values": [{"measurement": "ED50", "setting": "mice [1]; sc", "value": 0.116, "unit": "mg/kg"}, {"measurement": "ED50", "setting": "mice [2]", "value": 0.023, "unit": "mg/kg"}]}
{"smiles": "CC1CCCN(C(=O)Cc2ccc(Cl)c(Cl)c2)C1CN1CCCC1", "note": "(single isomer, unassigned) [Example 1, 1-(3,4-dichlorophenyl)acetyl-2-(pyrrolidin-1-yl)methyl-3-methyl piperidine hydrochloride hemihydrate diasteroisomer A]", "values": [{"measurement": "ANALGESIA M. TAIL-FLICK (QUANTAL) ED50", "setting": "mice [1]", "value": "0.405 (0.230-0.607) mg/Kg sc"}]}
{"smiles": "CC1CCCN(C(=O)Cc2ccc(Cl)c(Cl)c2)C1CN1CCCC1", "note": "(single isomer, unassigned) [Example 2, 1-(3,4-dichlorophenyl)acetyl-2-(pyrrolidin-1-yl)methyl-3-methyl piperidine hydrochloride diasteroisomer B]", "values": [{"measurement": "ANALGESIA M. TAIL-FLICK (QUANTAL) ED50", "setting": "mice [1]", "value": "0.147 (0.091-0.237) mg/Kg sc"}, {"measurement": "ANALGESIA M. WRITHING (GRADED) ED50", "setting": "mice [2]", "value": "0.091 (0.075-0.112) mg/Kg sc"}]}
{"smiles": "CC1CCCC(CN2CCCC2)N1C(=O)Cc1ccc(Cl)c(Cl)c1", "note": "(single isomer, unassigned; diastereoisomer a) [Example 6, 1-(3,4-dichlorophenyl)acetyl-2-(pyrrolidin-1-yl)methyl-6-methyl piperidine hydrochloride hemihydrate Diastereoisomer A]", "values": [{"measurement": "M. TAIL-FLICK (QUANTAL) % protection at single dose", "setting": "mice [1]; sc, 1.78 mg/Kg", "value": "(1.78 mg/Kg 60%)"}]}
{"smiles": "O=C(Cc1ccc(Cl)c(Cl)c1)N1CCCC(O)C1CN1CCCC1", "note": "(single isomer, unassigned; diastereoisomer a) [Example 7, 1-(3,4-dichlorophenyl)acetyl-2-(pyrrolidin-1-yl)methyl-3-hydroxy piperidine hydrochloride diastereoisomer A trans]", "values": [{"measurement": "ED50", "setting": "mice [1]; sc", "value": 0.825, "unit": "mg/kg"}, {"measurement": "DURATION OF ACTION M. TAIL-FLICK (GRADED) % ACTIVITY AT MTFQ ED50 30'", "setting": "mice [1]; dose = mouse tail-flick quantal ED50, 30'", "value": 87, "unit": "%"}, {"measurement": "DURATION OF ACTION M. TAIL-FLICK (GRADED) % ACTIVITY AT MTFQ ED50 90'", "setting": "mice [1]; dose = mouse tail-flick quantal ED50, 90'", "value": 39, "unit": "%"}, {"measurement": "ED50", "setting": "mice [2]", "value": 0.141, "unit": "mg/kg"}]}
{"smiles": "O=C(Cc1ccc(Cl)c(Cl)c1)N1CCCC(O)C1CN1CCCC1", "note": "(single isomer, unassigned; diastereoisomer b) [Example 8, 1-(3,4-dichlorophenyl)acetyl-2-(pyrrolidin-1-yl)methyl-3-hydroxy piperidine hydrochloride diastereoisomer B cis]", "values": [{"measurement": "M. TAIL-FLICK (QUANTAL) % protection", "setting": "mice [1]; sc", "value": "at 10 mg = 20% protection"}]}
{"smiles": "CC1(C)CCCN(C(=O)Cc2ccc3c(c2)CCCC3=O)C1CN1CCCC1", "note": "(stereo not drawn) [Example 13, 1-[1-oxo-3,4-dihydro-(2H)-napht-6-yl]acetyl-2-(pyrrolidin-1-yl)methyl-3,3-dimethyl piperidine]", "values": [{"measurement": "M. TAIL-FLICK (QUANTAL) % protection", "setting": "mice [1]; sc", "value": "at 10 mg = 60% protection"}]}
